# In US20080095737A1, “NON-TOXIC COATING COMPOSITION, METHODS OF USE THEREOF AND ARTICLES PROTECTED FROM ATTACHMENT OF BIOFOULING ORGANISMS” (Symrise GmbH & Co. KG, priority 2000, published 2008):
# Where “and” joins values, the source holds several entries; their conditions need not be identical. Identical values can stand only once. Like-named read-outs stand apart in the source and are kept apart here.
# Experiments:
# [1] = tested on: cyprid larvae of the barnacle, Balanus amphitrite Darwin; experiment: Barnacle settlement inhibition assay; format: in vivo; details: for EC50: Amphibalanus amphitrite, read-out: EC50 (concentration which inhibited the settlement of 50% of the cyprid stage larvae); for efficacy as antifouling agents: in words
# Source text: Mary's College in Tuticorin, India. The barnacles were crushed and the nauplius stage larvae were collected for culture to the cyprid stage following the method of Rittschof et al., J. Exp. Mar. Biol. Ecol., 82:131146 (1984). The cyprid is the stage at which the barnacle larva is competent to attach to surfaces. Upon attachment to a surface, the larva then undergoes metamorphosis into a barnacle. Barnacle settlement assays were undertaken using the method described previously by Rittschof et al., J. Chem. […] Briefly, Falcon 50×9 mm plastic petri dishes were filled with 5 ml of filtered seawater at salinity of 33-35 parts per thousand (ppt) and into which 3-day old cyprid stage larvae were added. The test compounds were introduced at various concentrations into the dishes containing seawater. The test compounds included (-)menthol and (-)[…]-3,8-diol. Controls were represented by those dishes in which no test compound were added. After incubation at 28° C. for 9 hours, the dishes were examined under a dissecting microscope to determine if there was any mortality. […] Settlement data were expressed as the percentage of the larvae attached to the bottom of the dish. The same settlement assay was used to determine the effective concentration of a number of different compounds of formula I, above. The effective concentration (EC50) is that concentration which inhibited the settlement of fifty percent (50%) of the cyprid stage of the barnacle larvae present in a test sample.
# Aeromonas sp. (Ael) = experiment: Agar diffusion assay, marine bacteria associated with B. amphitrite; format: cell-based; details: 0.004 mg/ml loaded on 6.5 mm disks
# Flavobacterium sp. (F) = experiment: as above; format: cell-based; details: 0.004 mg/ml loaded on 6.5 mm disks
# [2] = tested on: other bacterial strains associated with B. amphitrite; experiment: as above; format: cell-based; details: 0.004 mg/ml loaded on 6.5 mm disks
# Vibrio sp. (V, & V,) = experiment: Agar diffusion assay, marine bacteria associated with Perna sp; format: cell-based; details: procedure as Example 2
# Dunaliella tertiolecta = experiment: In vitro cell growth inhibition assay, marine unicellular algae; format: cell-based; details: 0.00001-1.0 mg/ml, cell counts at 24-hour intervals
# Description: (§1) The in vitro cell growth inhibition assay used in this test is described in […], et al., J. Chem. Ecol., supra. Dunaliella tertiolecta is a marine micro algae cultured in the laboratory. Each test algae was inoculated from stock culture into flasks containing growth medium. (-)-menthol was added to the flask at various concentrations and the growth was monitored on each flask using a haemocytometer at 24-hour intervals up to the death phase of the culture.
# Nitzchia sp. = experiment: In vitro cell growth inhibition assay, Nitzchia sp; format: cell-based; details: 0.00001-1.0 mg/ml, compared to the control
# Description: as §1, with “culture. The test procedure employed was substantially the same as described in Example 4, except that Nitzchia sp. was substituted for D. tertiolecta.” for “culture.”
# fouling phytoplanktons = experiment: Attachment of fouling phytoplanktons on painted submerged cement structures (seawater raceway); set-up: key: +++++: highest amount of fouling attachments; −: no appreciable fouling attachments; details: 5% by weight in paint on cement structure, 60 days in seawater raceway
# Description: A raceway measuring 100 feet long, 15 feet wide and 3 feet deep was constructed near the sea and lined with a plastic liner. Seawater was pumped directly from the sea and the Growth of naturally occurring plankton was induced by fertilization of the seawater. The total volume of the seawater was approximately 150 cubic meters. The water was circulated and aerated using a paddlewheel. Samples of the seawater were analyzed after 30 days and found to contain the following species of diatoms: Grammatophoria ocean ica, Nitzschia sp., A,inphora sp., Amphora bigilba, Thalassiothrix sp., Stauroneis sp., Licniophora sp., and Navicula sp. The seawater also contained the dinoflagellate, Peridhan sp., and the blue Green algae, Ocillatoria sp. and Rivularia sp.
# A conventional paint formulation that was free of any tributyl tin compounds was used as a control. Paint formulations embodying the present invention were prepared by incorporating (−)-menthol and (−)-(trans)-p-menthan-3,8-diol at a dose concentration of 5 percent (5%) by weight of each compound into the same paint vehicle used for the control formulation, and these two formulations were painted on separate surfaces of cement structures placed in the raceway. The controls consisted of unpainted cement surface and surface painted with the control formulation. […]
# [3] = tested on: barnacle, Balanus amphitrite communis; experiment: Painted iron panels submerged in the sea, barnacle attachment; details: cuprous oxide-containing marine paint on iron panels, submerged 78 weeks; control paint = 100
# Description: A floating platform was constructed using layers of bamboo and styrofoam floats. The platform was designed with holders to accommodate test panels measuring 4 inches×12 inches×0.25 inches.
# A first experimental paint was prepared, containing a biocidally effective amount of cuprous oxide and no other biocide which was used as the control. To this composition was added a combination of 0.5%, by weight of (−)-trans-pmenthan-3,8-diol and 0.50 of (−)-menthol (Composition A). A second paint composition was prepared from the same marine paint vehicle containing cuprous oxide, to which was added 2% by weight of (−)-menthol (Composition B). A third formulation was made from the same cuprous oxide-containing marine paint vehicle, to which was added 2% by weight of (−)-trans-p-menthan-3,8-diol (Composition C).
# Solid iron panels having the above-mentioned dimensions were painted with the paint formulations thus prepared, placed in the holders in the floating platform and submerged continuously near the center of Bitac Cove in San Dionisio Bay (Philippines) for a period of 78 weeks. The panels were examined for a few minutes every three months and immediately resubmerged after photography. After 78 weeks, the panels were removed and inspected. The numbers of barnacles attached to the panels were counted. […]
# [4] = tested on: nauplii of the barnacle, Balauus annphitrite Darwin; experiment: Mortality of barnacle nauplii at the effective concentrations; details: prolonged exposure at the compound's EC50 concentration
# [5] = tested on: other bacterial strains associated with Perna sp; experiment: Agar diffusion assay, marine bacteria associated with Perna sp; details: procedure as Example 2
# [6] = tested on: barnacle, Balanus amphitrite Darwin; details: cited from earlier work
# [7] = settlement assay, cyprid larvae
smiles,measurement,setting,value
"CC1CCC(C(C)C)C(O)C1 (single isomer, unassigned; (-)) [(−)-menthol]",EC50,[1],4 µg/mL
same,settlement (percentage of the larvae attached to the bottom of the dish),"[1]; each of five concentrations tested (concentrations not given), in order, last = highest, 9 hours at 28° C., control 59% (diol) / 58% (menthol)",39% and 34% and 26% and 23% and 21%
same,"zone of inhibition, radius",Aeromonas sp. (Ael),greater than 10 mm
same,"zone of inhibition, radius",Flavobacterium sp. (F),greater than 10 mm
same,sensitivity of bacterial strains,[2],moderately sensitive
same,"zone of inhibition, radius","Vibrio sp. (V, & V,)",greater than 8.5 mm
same,inhibition of growth,Dunaliella tertiolecta,effective in inhibiting the growth of this micro algae in a dose dependent manner
same,inhibition of growth rate,Nitzchia sp.,effective at all of the concentrations tested in inhibiting the growth rate
same,DEGREE OF BIOFOULING,fouling phytoplanktons,−
same,% Settlement,[3],16.1%
same,mortality of barnacle nauplii,[4],did not show any mortality
same,sensitivity of bacterial strains,[5],moderately sensitive
CCC[CH2][Sn]([Cl])([CH2]CCC)[CH2]CCC [TBT chloride],"acute toxicity, estimated dose",[6],~3.4 μg (microgram) per liter
same,"acute toxicity, estimated dose",[6]; same value restated,~0.0000034 grams/liter
"CC1CCC(C(C)(C)O)C(O)C1 (single isomer, unassigned; (-)) [(−)-trans-p-menthan-3,8-diol]",EC50,[1],1 µg/mL
same,DEGREE OF BIOFOULING,fouling phytoplanktons,−
same,% Settlement,[3],27.1%
same,mortality of barnacle nauplii,[4],did not show any mortality
"CC1CCC(C(C)C)C(=O)C1 (single isomer, unassigned; (-)) [(−)-menthone]",EC50,[1],1 µg/mL
same,mortality of barnacle nauplii,[4],did not show any mortality
"C=C(C)C1CCC(C)CC1O (single isomer, unassigned; (-)) [(−)-isopulegol, 5-methyl-2-(1-methylethenyl)cyclohexanol]",EC50,[1]; [7],0.088 µg/mL
same,efficacy as antifouling agents,[1]; settlement assay,superior efficacy
"CC1CCC(C(C)C)C(OCC(O)CO)C1 (centres unmarked) [menthoxypropanediol, 3-[[5-methyl-2-(1-methylethyl)cyclohexyl]oxy]-1,2-propanediol]",EC50,[1]; [7],0.002 µg/mL
same,efficacy as antifouling agents,[1]; settlement assay,superior efficacy
"CC1CCC(C(C)C)C(Cl)C1 (single isomer, unassigned; (-)) [(−)-menthyl chloride]",EC50,[1],0.1 µg/mL
same,mortality of barnacle nauplii,[4],did not show any mortality
